# Earlier results in patent US8193376B2, “Artemisinin derivatives with natural amino acids, peptides, and amino sugars for the treatment of infection and topical condition in mammals” (Bioderm Research, priority 2007, dated 2012).
# Experiments:
# [1] = tested on: malaria; settings: relative to artemisinin
# [2] = tested on: nucleic acid synthesis; settings: relative to artemisinin
SMILES,"antimalarial potency, times that of artemisinin [1] [times]","ability to inhibit nucleic acid synthesis, times the activity of artemisinin [2] [times]",antimalarial potency higher than that of artemisinin [1] [%]
CO[C@H]1O[C@@H]2O[C@@]3(C)CC[C@H]4[C@H](C)CC[C@@H]([C@H]1C)[C@@]24OO3 [Artemether],6,100,
C[C@H]1[C@H](OC(=O)CCC(=O)O)O[C@@H]2O[C@@]3(C)CC[C@H]4[C@H](C)CC[C@@H]1[C@@]24OO3 [Artesunate],5.2,100,
C[C@H]1[C@@H](O)O[C@@H]2O[C@@]3(C)CC[C@H]4[C@H](C)CC[C@@H]1[C@@]24OO3 [Dihydroartemisinin],,100,60
"CCO[C@H]1O[C@@H]2O[C@@]3(C)CC[C@H]4[C@H](C)CC[C@@H]([C@H]1C)[C@@]24OO3 [arteether, Arteether]",,100,
CCCOC(=O)OC1O[C@@H]2O[C@@]3(C)CC[C@H]4[C@H](C)CC[C@@H]([C@H]1C)[C@@]24OO3 (some centres unmarked) [propylcarbonate dihydroartemisinin],,100,
